Test results as given in PubChem BioAssay (NCI).
Several values for one entry are separate records, joined by “and”; a condition that tells them apart may be missing. Identical values can stand only once.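 Five concentrations, 48 hours, 96-well plates. At the GI50, growth is halved. TGI is the concentration that stops growth completely.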

Tests used:
Test in all cases: growth of human tumour cells (NCI), 48 h
HCC-2998 colon = test system: HCC-2998 colon
SNB-75 CNS = test system: SNB-75 CNS
NCI-H226 lung = test system: NCI-H226 lung
HOP-92 NSCLC = test system: HOP-92 NSCLC
786-0 renal = test system: 786-0 renal
SW-620 colon = test system: SW-620 colon
A498 renal = test system: A498 renal
HT29 colon = test system: HT29 colon
NCI-H522 lung = test system: NCI-H522 lung
SK-OV-3 ovarian = test system: SK-OV-3 ovarian

| Compound | TGI (HCC-2998 colon) | TGI (SNB-75 CNS) | TGI (NCI-H226 lung) | TGI (HOP-92 NSCLC) | TGI (786-0 renal) | TGI (SW-620 colon) | TGI (A498 renal) | TGI (HT29 colon) | TGI (NCI-H522 lung) | TGI (SK-OV-3 ovarian) | GI50 (HCC-2998 colon) | GI50 (SNB-75 CNS) | GI50 (NCI-H226 lung) | GI50 (HOP-92 NSCLC) | GI50 (786-0 renal) | GI50 (SW-620 colon) | GI50 (A498 renal) | GI50 (HT29 colon) | GI50 (NCI-H522 lung) | GI50 (SK-OV-3 ovarian) |
| --- | --- | --- | --- | --- | --- | --- | --- | --- | --- | --- | --- | --- | --- | --- | --- | --- | --- | --- | --- | --- |
| CC(C(=O)c1ccccc1)C1(O)C(=O)Nc2ccccc21 (stereo unspecified) | > 100 µM | > 100 µM | > 100 µM | > 100 µM | > 100 µM | > 100 µM | > 100 µM | > 100 µM | > 100 µM | > 100 µM |  |  |  |  |  |  |  |  |  |  |
| CCN(CC)C(=O)CNC(=O)OC(C)(C)C | > 100 µM | > 100 µM | > 100 µM | > 100 µM | > 100 µM | > 100 µM | > 100 µM | > 100 µM | > 100 µM | > 100 µM |  |  |  |  |  |  |  |  |  |  |
| COc1ccccc1N1CCN(C(=O)c2ccc(NS(=O)(=O)c3cccc4cccnc34)cc2)CC1 | > 100 µM | > 53.7 µM | > 100 µM | > 100 µM | > 100 µM | > 100 µM | > 100 µM | > 100 µM | > 88.5 µM | > 83.3 µM | > 100 µM | 10.1 µM | > 33.2 µM | > 100 µM | > 61.7 µM | > 100 µM | > 47.6 µM | > 100 µM | 22.2 µM | > 45.5 µM |
| NC(=O)c1cc(Cl)ccc1NC(=O)c1ccccc1-c1ccccc1 | 31.6 µM | 3.2 µM | > 100 µM | 61.5 µM | 17.9 µM | > 100 µM | 9.78 µM | 11.5 µM | 0.988 µM | 11.3 µM | 2.99 µM | 0.273 µM | 18.4 µM | 3.96 µM | 0.479 µM | 0.412 µM | 0.155 µM | 0.385 µM | 0.289 µM | 0.677 µM |
| CC1OC(O[C@H]2/C=C/C=C/C=C/C=C/C=C/C=C/C=C/[C@H](C)[C@@H](O)[C@@H](C)[C@H](C)OC(=O)C[C@H](O)C[C@H](O)CC[C@@H](O)[C@H](O)C[C@H](O)C[C@]3(O)C[C@H](O)[C@@H](C(=O)O)[C@H](C2)O3)C(O)C(N)C1O (stereo partly specified) | 61.2 µM | 61.7 µM | > 100 µM | 52.9 µM | 29.2 µM | 32.8 µM | 25 µM | 56.4 µM | 20.9 µM | 70.1 µM |  | 32.7 µM |  |  |  |  | 10.4 µM |  |  |  |
| CC(C)c1cccc(C(C)C)c1N=C(N)C#N | > 100 µM | > 100 µM | > 100 µM | > 100 µM | > 61.3 µM | 58.5 µM | > 100 µM | > 100 µM | > 100 µM | > 100 µM |  |  |  |  |  |  |  |  |  |  |
| COc1cc(C)[nH]c(=O)c1CN1CCc2c(Cl)cc([C@H](OC)C3COC3)c(Cl)c2C1=O | > 100 µM | > 100 µM | > 100 µM | > 100 µM | > 100 µM | > 100 µM | > 100 µM | > 100 µM | > 100 µM | > 100 µM | > 100 µM | > 100 µM | > 100 µM | > 100 µM | > 100 µM | > 100 µM | > 100 µM | > 100 µM | > 100 µM | > 100 µM |
| C=C1SC(=Nc2ccccc2Cl)N(C(=O)c2sc3ccccc3c2Cl)C1(C)C | > 45 µM | 97.4 µM | > 74.2 µM | > 22.8 µM | > 81.9 µM | > 100 µM | > 57.5 µM | 51.7 µM | 26.8 µM | 80.2 µM | 8.54 µM | 6.41 µM | 5.52 µM | 3.47 µM | 25.4 µM | 4.68 µM | 4.04 µM | 14.2 µM | 3.03 µM | 7.94 µM |
| c1ccc2c(c1)nnn2CNc1ccc(N2CCOCC2)cc1 | > 100 µM | > 100 µM | > 100 µM | > 100 µM | > 100 µM | > 100 µM | > 100 µM | > 100 µM | > 100 µM | > 100 µM |  |  |  |  |  |  |  |  |  |  |
| O=C(O[C@H]1CN[C@H](C#Cc2cc3ncnc(Nc4ccc(OCc5cccc(F)c5)c(Cl)c4)c3s2)C1)N1CCOCC1 | 12.6 µM | > 25 µM | 12 µM | 9.96 µM | 9.66 µM | > 25 µM | 8.21 µM | 11.4 µM | 8.12 µM | > 25 µM | 5.01 µM | 7.73 µM | 5.32 µM | 1.45 µM | 4.68 µM | 12.2 µM | 1.76 µM | 5.7 µM | 1.41 µM | 0.0356 µM |
| COc1cc([C@@H]2c3cc4c(cc3[C@H](OC(C)=O)[C@H]3COC(=O)[C@H]23)OCO4)cc(OC)c1OC | > 100 µM | > 100 µM | > 100 µM | 4.94 µM | > 100 µM | > 100 µM | 0.065 µM | 17.9 µM | 0.0722 µM | > 100 µM | 0.0401 µM | 8.43 µM | 0.0975 µM | 0.0254 µM | 0.0341 µM | 0.0334 µM | 0.0139 µM | 0.0335 µM | 0.018 µM | 0.035 µM |
| CC1=C2C(=O)C(C)(C)C=C2C(=O)[C@](C)(O)C12CC2 | > 1 µM | > 1 µM | > 1 µM | > 1 µM | > 1 µM | > 1 µM | > 1 µM | > 1 µM | 0.7 µM | > 1 µM |  |  |  |  |  |  |  |  |  |  |
| C#Cc1cccc(Nc2ncnc3ccc(-c4cnc(Cl)c(NS(C)(=O)=O)c4)cc23)c1 | 1.78 µM | 0.125 µM | 4.3 µM | 0.835 µM | 4.55 µM | 5.65 µM | 0.254 µM |  | 4.33 µM | 1.38 µM | 0.416 µM | 0.0101 µM | 0.564 µM | 0.078 µM | 0.343 µM | 0.467 µM | 0.0334 µM | 0.404 µM | 0.332 µM | 0.206 µM |
| O=C1c2cccc3cc([N+](=O)[O-])cc(c23)C(=O)N1CCN1CCCC1 | 2.74 µM | 2.27 µM | 0.632 µM | 2.79 µM | 1.2 µM | 5.19 µM | 1.65 µM | 7.6 µM | 2.88 µM | 1.11 µM | 0.582 µM | 0.388 µM | 0.193 µM | 0.355 µM | 0.28 µM | 0.389 µM | 0.319 µM | 0.593 µM | 0.495 µM | 0.252 µM |
| CCOC(=O)C#Cc1ccc([N+](=O)[O-])cc1 | 28.7 µM | 7.88 µM | 7.78 µM | 3.47 µM | 3.41 µM | 7.43 µM | 32 µM | 2.94 µM | 3.09 µM | 25.6 µM |  |  |  |  |  |  |  |  |  |  |
| CCC(O)(c1ccc(OC)cc1)C(c1ccc(OCc2ccccc2)cc1)c1ccc(OCc2ccccc2)cc1 (stereo unspecified) | > 100 µM | > 100 µM | > 100 µM | > 100 µM | > 100 µM | > 100 µM | > 100 µM | > 100 µM | > 100 µM | > 100 µM |  |  |  |  |  |  |  |  |  |  |
| Oc1cccc(Cn2c(-c3cccc(O)c3O)nc3ccccc32)c1O | 30 µM | > 100 µM | 21.9 µM | > 100 µM | 14.1 µM | 60.1 µM | 60.4 µM | > 100 µM | 49.1 µM | 75.4 µM | 11 µM | 26.2 µM | 3.95 µM | 36.8 µM | 1.86 µM | 6.82 µM | 17.6 µM | 15.5 µM | 7.88 µM | 13.9 µM |
| O=C1/C=C/[C@@H](O)[C@@H]2C[C@@H](O)C[C@H]2/C=C/CCC[C@H](CO)O1 | > 100 µM | > 100 µM | 2.74 µM | > 100 µM | 4.87 µM | 6.81 µM | > 100 µM | 12.4 µM | 7.74 µM | > 100 µM | 2.61 µM | 2.37 µM | 1.21 µM | 2.76 µM | 1.78 µM | 2.32 µM | 1.31 µM | 0.942 µM | 2.67 µM | 4.62 µM |
| Cc1cccc2c1NC(=O)[C@@]21[C@H](C(=O)c2ccccc2)[C@]2(C(=O)Nc3ccccc32)[C@H]2CCCN21 | > 100 µM | 63.4 µM | > 100 µM | 59.1 µM | > 100 µM | > 100 µM | > 100 µM | > 100 µM | > 100 µM | > 100 µM | 49.5 µM | 15 µM | 27.1 µM | 24.7 µM | 36 µM | 21.6 µM | > 100 µM | 37.3 µM | 29.2 µM | 43.3 µM |
| CC(C)(C)N1CC(OC(N)=O)C1 | > 100 µM | > 100 µM | > 100 µM | > 100 µM | > 100 µM | > 100 µM | > 100 µM | > 100 µM | > 100 µM | > 100 µM | > 100 µM | > 100 µM | > 100 µM | > 100 µM | > 100 µM | > 100 µM | > 100 µM | > 100 µM | > 100 µM | > 100 µM |
| COc1cc2c(Nc3ccc(Br)cc3F)ncnc2cc1OCC1CCN(C)CC1 | 21.6 µM and > 10 µM | 5.79 µM and > 10 µM | 18.8 µM and > 10 µM | 4.07 µM and 6.91 µM | 13.1 µM and > 10 µM | 15.7 µM and > 10 µM | 4.36 µM and > 10 µM | 10.8 µM and > 10 µM | 7.31 µM and > 10 µM | 7.06 µM and > 10 µM | 7.38 µM and > 10 µM | 0.737 µM and 1.13 µM | 5.23 µM and > 10 µM | 0.527 µM and 0.454 µM | 2.96 µM and 3.01 µM | 4.69 µM and > 10 µM | 0.712 µM and 2.03 µM | 2.38 µM and 3.39 µM | 2 µM and 1.28 µM | 1.2 µM and 1.67 µM |
